Tested on: LINC00518
Assay: LINC00518 expression by RT-qPCR in cells treated with MAPK pathway inhibitors
Conditions: 501Mel and A375 cells, between 12-72 hours after treatment
Protocol: Activated Caspase 3 was measured by FACS.
Samples were taken at the indicated time points, total RNA was extracted, retrotranscribed and analyzed by qPCR for LINC00518 expression. B. LINC00518 RNA levels were quantified from scRNAseq of melanoma patient derived xenotransplants (PDXs) treated with Dabrafenib and Trametinib (GSE116237). […] LINC00518 RNA levels were quantified from RNA sequencing of melanoma patients treated with Durvalumab and Trametinib for 15 days (GSE158403). […] Cytoplasmic and mitochondrial RNA fractions were extracted, retrotranscribed and analyzed by qPCR for LINC00518 expression. […] Oxygen consumption rate (OCR) was measured using Agilent Seahorse. Basal and Maximal OCR and reserve capacity were calculated on the basis of OCR changes upon oligomycin (oligo), FCCP and Rotenone A (RotA) administration to the cells.
Total mRNA isolation was performed using the Genelute Mammalian Total RNA Miniprep Kit (Sigma) following manufacturer instructions, or using Trizol and isopropanol precipitation. […] Total and fractionated RNAs were treated with DNAsel following the TurboDnase free kit instructions (Thermofisher) and reversed transcribed using Superscript IV reverse transcriptase (Thermofisher) following manufacturer instructions. qRT-PCR was carried out with SYBR Green I (Roche) and monitored by a LightCycler 480 (Roche). […]

In the case of CC(C)(C)c1nc(-c2cccc(NS(=O)(=O)c3c(F)cccc3F)c2F)c(-c2ccnc(N)n2)s1 [Dabrafenib], the LINC00518 expression is reported as “up-regulation”.
